Data set [1] is described as follows: in vivo. The conditions noted are these: Sprague-Dawley, rat, iv, 1 mg/kg.
A short description of data set [2]: in vivo. As to conditions: Sprague-Dawley, rat, iv, 1 mg/kg. This is another data set of the same source.
A short description of data set [3]: in vivo. As to conditions: Sprague-Dawley, rat, po, 5 mg/kg.
A short description of data set [4]: in vivo. The conditions noted are these: Sprague-Dawley, rat, po, 5 mg/kg. The source holds these as a separate data set.
Data set [5] can be described thus: in vivo. The conditions noted are these: Sprague-Dawley, rat, brain, po, 5 mg/kg.
Data set [6] is described as follows: in vivo. As to conditions: Sprague-Dawley, rat, brain, po, 5 mg/kg. The source holds these as a separate data set.
Data set [7] is described as follows: in vitro. As to conditions: human, liver microsomes.
Data set [8] is described as follows: in vivo. The conditions noted are these: Sprague-Dawley, rat, iv, 1 mg/kg. This is another data set of the same source.
Data set [9] can be described thus: in vivo. As to conditions: Sprague-Dawley, rat, liver, po, 5 mg/kg.
Data set [10] in a line: in vivo. As to conditions: Sprague-Dawley, rat, iv, 1 mg/kg. The source holds these as a separate data set.
Data set [11] in a line: in vitro. The conditions noted are these: rat, liver microsomes.
Data set [12] is described as follows: in vivo. As to conditions: Sprague-Dawley, rat, po, 5 mg/kg. This is another data set of the same source.
Data set [13] can be described thus: in vivo. The conditions noted are these: Sprague-Dawley, rat, po, 5 mg/kg. The source holds these as a separate data set.
Data set [14] can be described thus: in vivo. The conditions noted are these: Sprague-Dawley, rat, iv, 1 mg/kg. The source holds these as a separate data set.

Each structure is given as a SMILES string.

Take `Cc1nsc(-c2nnc3n2CCN(C(=O)c2ccc(F)cc2)[C@@H]3C)n1` [FEZOLINETANT]: the AUC(0-t) at 24 h turned out to be 5590 ng·h/mL in the data set “in vivo [1]” and 31600 ng·h/mL in “in vivo [12]”. Also, the Vd at 24 h in the data set “in vivo [2]” was 0.751 L/kg. Besides, the Tmax at 24 h in “in vivo [3]” was 1.83 h. For the same molecule, the half-life at 24 h was 3.72 h in “in vivo [4]” and 2.94 h in the data set “in vivo [14]”. In addition, the concentration at 10 h in the data set “in vivo [5]” amounted to 297 ng/g. Further, the concentration at 1 h worked out at 1020 ng/g in “in vivo [6]” and 12100 ng/g in the data set “in vivo [9]”. Also, the CLint scaled at 0.25 h is under 13.5 mL/min/kg in “in vitro [7]” and under 6.8 mL/min/kg in “in vitro [11]”. Also, the Cmax at 24 h in the data set “in vivo [8]” was 1770 ng/mL; in the data set “in vivo [13]”, 3630 ng/mL. The molecule also had a clearance at 24 h in “in vivo [10]” of 2.93 mL/min/kg.

Values taken from ChEMBL document CHEMBL5620365, “Synthesis and evaluation of piperazinotriazoles. Discovery of a potent and orally bioavailable neurokinin-3 receptor inhibitor” (Eur J Med Chem, 2023).
